Legend:
IL-6 = IL-6 expression in RAW 264 macrophages; type: cell-based
Protocol: (§1) RAW 264 macrophages and 3T3-L1 preadipocytes (American Type Culture Collection) were incubated at a density of 8000 cells/cm2 (10 cm2 dish) and grown in Dulbecco's modified Eagle's medium (DMEM) containing 10% FBS and antibiotics (adipocyte medium) at 37° C. in 5% CO2 in air. Confluent 3T3-L1 preadipocytes were induced to differentiate with a standard differentiation medium consisting of DMEM-F10 (1:1, vol/vol) medium supplemented with 1% FBS, 1 μM dexamethasone, IBMX (0.5 mM) and antibiotics (1% Penicillin-Streptomycin). Preadipocytes were maintained in this differentiation medium for 3 days and subsequently cultured in adipocyte medium. Cultures were re-fed every 2-3 days to allow 90% cells to reach fully differentiation for 3T3-L1 adipocytes or grow to a confluence for RAW 264 before conducting chemical treatment.
Human adipocytes (Zen-Bio, Inc.), 3T3-L1 adipocytes, RAW264 macrophages were obtained and co-cultured by using transwell inserts with 0.4 μm porous membranes (Corning) to separate adipocytes and macrophages. All data are expressed as mean±SEM. Data were evaluated for statistical significance by analysis of one-way or two-way variance (ANOVA; means with different letter differ, p<0.05).
Adipocyte and muscle 18s, CD14, TNFα, MIP, M-CSF, IL-6 and MCP-1 were quantitatively measured using a Smart Cycler Real Time PCR System (Cepheid, Sunnyvale, Calif.) with a TaqMan 1000 Core Reagent Kit (Applied Biosystems, Branchburg, N.J.). The primers and probe sets were obtained from Applied Biosystems TaqMan® Assays-on-Demand™ Gene Expression primers and probe set collection according to manufacture's instruction. […] Reactions of quantitative RT-PCR for standards and unknown samples were also performed according to the instructions of Smart Cycler System (Cepheid, Sunnyvale, Calif.) and TaqMan Real Time PCR Core Kit (Applied Biosystems, Branchburg, N.J.). The mRNA quantitation for each sample was further normalized using the corresponding 18s quantitation.

MCP-1 = MCP-1 expression in 3T3-L1 adipocytes; type: cell-based, mouse; details: calcitriol 10 nmol/L, 48 hours
Protocol: as §1, with “Cultures were re-fed every 2-3 days to allow 90% cells to reach fully differentiation for 3T3-L1 adipocytes or grow to a confluence for RAW 264 before conducting chemical treatment.” left out
Cells were washed with fresh adipocyte medium, re-fed with medium containing the indicated treatments, and incubated at 37° C. in 5% CO2 for 48 hours before analysis. Cell viability was measured via trypan blue exclusion.
Adipocyte and muscle 18s, CD14, TNFα, MIP, M-CSF, IL-6 and MCP-1 were quantitatively measured using a Smart Cycler Real Time PCR System (Cepheid, Sunnyvale, Calif.) with a TaqMan 1000 Core Reagent Kit (Applied Biosystems, Branchburg, N.J.). […] Reactions of quantitative RT-PCR for standards and unknown samples were also performed according to the instructions of Smart Cycler System (Cepheid, Sunnyvale, Calif.) and TaqMan Real Time PCR Core Kit (Applied Biosystems, Branchburg, N.J.). […]

IL-15 = IL-15 expression in differentiated Zen-bio human adipocytes; type: cell-based; details: 10 nmol/L 1α, 25-(OH)2-D3 or 10 μmol/L nifedipine, 48 h; p=0.473
Protocol: Human pre-adipocytes used in this study were supplied by Zen-Bio (Research Triangle, N.C.). […] The cells are isolated from the stromal vascular fraction of human subcutaneous adipose tissue and differentiated in vitro as follows: […] Preadipocytes were maintained in this differentiation medium for 3 days and subsequently cultured in adipocyte medium in which BRL49653 and MIX were omitted. Cultures were re-fed every 2-3 days till fully differentiated. Cells were incubated in serum free medium overnight before chemical treatment. Chemicals were freshly diluted in adipocyte medium before treatment. […] Cell viability was measured via trypan blue exclusion. Adipocyte and muscle 18s, TNFα, IL-6, IL-8, IL-15 and adiponectin were quantitatively measured using a smart cycler real-time PCR system (Cepheid, Sunnyvale, Calif.) with a TaqMan 1000 Core Reagent Kit (Applied Biosystems, Branchburg, N.J.). […] Reactions of quantitative RT-PCR for standards and unknown samples were also performed according to the instructions of Smart Cycler System (Cepheid, Sunnyvale, Calif.) and TaqMan Real Time PCR Core Kit (Applied Biosystems, Branchburg, N.J.). The mRNA quantitation for each sample was further normalized using the corresponding 18s quantitation.

C=C1/C(=C\C=C2/CCC[C@]3(C)[C@@H]([C@H](C)CCCC(C)(C)O)CC[C@@H]23)C[C@@H](O)C[C@@H]1O [calcitriol, 1, 25-Dihydroxyvitamin D]
effect on IL-6 expression in macrophages in co-culture (IL-6; co-culture with differentiated 3T3-L1 adipocytes): further enhanced | stimulation of IL-6 expression (IL-6; macrophages cultured alone, calcitriol 10 nmol/L, 48 hours): 796% | effect on MCP-1 expression (MCP-1): markedly stimulate | effect on IL-15 expression (IL-15): no effect

Reference: patent publication US20070092577A1, “Dietary calcium for reducing the production of reactive oxygen species” (University of Tennessee Research Foundation, priority 2005, published 2007)
